Data: patent publication US20160287571A1, “PHARMACEUTICAL COMPOSITIONS COMPRISING ANTIBACTERIAL AGENTS” (priority 2013, published 2016)
Where two headings read alike, the source gives them in different places.

Legend:
Assay type in all cases: cell-based, Acinetobacter baumannii
[1] = system: A. baumannii NCTC 13302 (OXA 51, OXA 25); test: Time kill study; conditions: for Bacterial count: initial count 6.54 log CFU/ml; for Effect on bacterial counts throughout the duration of the study (in words): A. baumannii NCTC 13302, summary of Table 3
Protocol: (§1) The synergistic killing effect of the combinations according to invention was studied using time kill studies. In a typical time kill study, freshly grown cultures were diluted to the required cell density (initial starting inoculum) in Cation adjusted Muller Hinton broth medium (BD, USA). The antibacterial agents (either alone or in combination) at the required concentrations were added into the culture-containing medium. The samples were incubated under shaking condition (120 rpm) at 37° C. Enumeration of viable bacterial count was done every 2 hour by diluting in normal saline and plating on to the Tryptic Soya Agar plates (BD, USA). The plates were incubated for 24 hours to arrive at the viable bacterial count. The results are expressed in terms of Log CFU per […]. In general, the decrease of 1 Log CFU/ml, corresponds to 90% killing of bacteria. Similarly, 2 Log CFU/ml reductions indicates 99% killing of bacteria and 3 Log CFU/ml reductions is equal to 99.9% killing of bacteria.

[2] = system: A. baumannii NCTC 13304 (OXA 51, OXA 27); test: Time kill study; conditions: for Bacterial count: initial count 6.06 log CFU/ml
Protocol: as §1

[3] = system: A. baumannii NCTC 13301 (OXA 51, OXA 23); test: MIC in Muller Hinton Agar (CLSI agar dilution)
Protocol: (§2) The antibacterial activity of combinations according to the invention against resistant bacterial strains was investigated. Minimum Inhibitory Concentration (MIC) for the combinations according to invention was determined in Muller Hinton Agar (MHA) (BD, USA) according to Clinical and Laboratory Standards Institute (CLSI) recommendations (Clinical and Laboratory Standards Institute (CLSI), Performance Standards for Antimicrobial Susceptibility Testing, 20th Informational Supplement, M 100-S20, Volume 30, No. 1, 2010). Typically, the test strains were adjusted to deliver about 10^4 CFU per spot with a multipoint inoculator (Applied Quality Services, UK). The plates were pored with MHA containing doubling concentration range of the test combinations according to invention. The plates were inoculated and were incubated at 35° C. for 18 hours.

[4] = system: A. baumannii NCTC 13302 (OXA 51, OXA 25); test: MIC in Muller Hinton Agar (CLSI agar dilution)
Protocol: as §2

[5] = system: A. baumannii NCTC 13305 (OXA 51, OXA 58); test: MIC in Muller Hinton Agar (CLSI agar dilution)
Protocol: as §2

[6] = system: A. baumannii J 144 (OXA 51, OXA 23); test: MIC in Muller Hinton Agar (CLSI agar dilution)
Protocol: as §2

[7] = system: A. baumannii G 156 (OXA 51, OXA 23); test: MIC in Muller Hinton Agar (CLSI agar dilution)
Protocol: as §2

[8] = system: A. baumannii M 126 (OXA 51, OXA 23); test: MIC in Muller Hinton Agar (CLSI agar dilution)
Protocol: as §2

[9] = system: A. baumannii Q 1460648 (OXA 51, OXA 23); test: MIC in Muller Hinton Agar (CLSI agar dilution)
Protocol: as §2

[10] = system: A. baumannii NCTC 13304 (OXA 51, OXA 27); test: MIC in Muller Hinton Agar (CLSI agar dilution)
Protocol: as §2

[11] = system: A. baumannii NCTC 13303 (OXA 51, OXA 26); test: MIC in Muller Hinton Agar (CLSI agar dilution)
Protocol: as §2

[12] = 2 hours, agent alone at 4 mcg/ml
[13] = 4 hours, agent alone at 4 mcg/ml
[14] = 6 hours, agent alone at 4 mcg/ml
[15] = Acinetobacter baumannii, NCTC13301, agent alone, A. baumannii NCTC 13301, read-out: MIC
[16] = Acinetobacter baumannii, NCTC13302, agent alone, A. baumannii NCTC 13302, read-out: MIC
[17] = Acinetobacter baumannii, NCTC13305, agent alone, A. baumannii NCTC 13305, read-out: MIC
[18] = Acinetobacter baumannii, agent alone, A. baumannii J 144, read-out: MIC
[19] = Acinetobacter baumannii, agent alone, A. baumannii G 156, read-out: MIC
[20] = Acinetobacter baumannii, agent alone, A. baumannii M 126, read-out: MIC
[21] = Acinetobacter baumannii, agent alone, A. baumannii Q 1460648, read-out: MIC
[22] = Acinetobacter baumannii, NCTC13304, agent alone, A. baumannii NCTC 13304, read-out: MIC
[23] = Acinetobacter baumannii, NCTC13303, agent alone, A. baumannii NCTC 13303, read-out: MIC

## O=C(NNC(=O)[C@@H]1CC[C@@H]2CN1C(=O)N2OS(=O)(=O)O)[C@@H]1CCCNC1 [Compound of Formula (I), (2S, 5R)-sulphuric acid mono-[2-(N′-[(R)-piperidin-3-carbonyl]-hydrazinocarbonyl)-7-oxo-1,6-diaza-bicyclo[3.2.1]oct-6-yl] ester]
[1]; [12]
  Bacterial count: 7.5 Log CFU/ml
[1]; [13]
  Bacterial count: 7.8 Log CFU/ml
[1]; [14]
  Bacterial count: 7.95 Log CFU/ml
[1]; 8 hours, agent alone at 4 mcg/ml
  Bacterial count: 8.4 Log CFU/ml
[1]
  Effect on bacterial counts throughout the duration of the study (in words): did not reduce the bacterial counts
[2]; [12]
  Bacterial count: 7 Log CFU/ml
[2]; [13]
  Bacterial count: 7.55 Log CFU/ml
[2]; [14]
  Bacterial count: 8.1 Log CFU/ml
[2]; A. baumannii NCTC 13304, summary of Table 4
  Effect on bacterial counts throughout the duration of the study (in words): did not reduce the bacterial counts
[3]; [15]
  MIC: > 32 µg/mL
[4]; [16]
  MIC: > 32 µg/mL
[5]; [17]
  MIC: > 32 µg/mL
[6]; [18]
  MIC: > 32 µg/mL
[7]; [19]
  MIC: > 32 µg/mL
[8]; [20]
  MIC: > 32 µg/mL
[9]; [21]
  MIC: > 32 µg/mL
[10]; [22]
  MIC: > 32 µg/mL
[11]; [23]
  MIC: > 32 µg/mL

## C[C@@H](O)[C@H]1C(=O)N2C(C(=O)O)=C(SCCN=CN)C[C@H]12 [Imipenem, imipenem]
[1]; 2 hours, agent alone at 8 mcg/ml
  Bacterial count: 7.87 Log CFU/ml
[1]; 4 hours, agent alone at 8 mcg/ml
  Bacterial count: 8.27 Log CFU/ml
[1]; 6 hours, agent alone at 8 mcg/ml
  Bacterial count: 8.07 Log CFU/ml
[1]; 8 hours, agent alone at 8 mcg/ml
  Bacterial count: 8.47 Log CFU/ml
[2]; 2 hours, agent alone at 16 mcg/ml
  Bacterial count: 6.34 Log CFU/ml
[2]; 4 hours, agent alone at 16 mcg/ml
  Bacterial count: 7.47 Log CFU/ml
[2]; 6 hours, agent alone at 16 mcg/ml
  Bacterial count: 7.07 Log CFU/ml
[3]; [15]
  MIC: 32 µg/mL
[4]; [16]
  MIC: > 32 µg/mL
[5]; [17]
  MIC: 8 µg/mL
[6]; [18]
  MIC: > 32 µg/mL
[7]; [19]
  MIC: 16 µg/mL
[8]; [20]
  MIC: 16 µg/mL
[9]; [21]
  MIC: 32 µg/mL
[10]; [22]
  MIC: 32 µg/mL
[11]; [23]
  MIC: > 32 µg/mL

## C[C@@H](O)[C@H]1C(=O)N2C(C(=O)O)=C(S[C@@H]3CN[C@H](C(=O)N(C)C)C3)[C@H](C)[C@H]12 [Meropenem, meropenem]
[5]; [17]
  MIC: 4 µg/mL
[7]; [19]
  MIC: 32 µg/mL
[8]; [20]
  MIC: 32 µg/mL
[9]; [21]
  MIC: 32 µg/mL
[10]; [22]
  MIC: 32 µg/mL
[11]; [23]
  MIC: > 32 µg/mL

## CN(C)c1cc(NC(=O)CNC(C)(C)C)c(O)c2c1C[C@H]1C[C@H]3[C@H](N(C)C)C(O)=C(C(N)=O)C(=O)[C@@]3(O)C(O)=C1C2=O [Tigecycline, tigecycline]
[1]; 2 hours, agent alone at 1 mcg/ml
  Bacterial count: 3.47 Log CFU/ml
[1]; 4 hours, agent alone at 1 mcg/ml
  Bacterial count: 3 Log CFU/ml
[1]; 6 hours, agent alone at 1 mcg/ml
  Bacterial count: 3 Log CFU/ml
[1]; 8 hours, agent alone at 1 mcg/ml
  Bacterial count: 3.23 Log CFU/ml
[1]
  Effect on bacterial counts throughout the duration of the study (in words): exhibited the reduction of the bacterial counts
[3]; Acinetobacter baumannii, NCTC13301
  MIC: 2 µg/mL
[4]; Acinetobacter baumannii, NCTC13302
  MIC: 2 µg/mL
[5]; Acinetobacter baumannii, NCTC13305
  MIC: 0.5 µg/mL
[6]; Acinetobacter baumannii
  MIC: 2 µg/mL
[7]; Acinetobacter baumannii
  MIC: 1 µg/mL
[8]; Acinetobacter baumannii
  MIC: 0.5 µg/mL
[9]; Acinetobacter baumannii
  MIC: 1 µg/mL
[10]; Acinetobacter baumannii, NCTC13304
  MIC: 0.5 µg/mL
[11]; Acinetobacter baumannii, NCTC13303
  MIC: 2 µg/mL

## colistin
[3]; agent alone, A. baumannii NCTC 13301
  MIC: 2 µg/mL
[4]; agent alone, A. baumannii NCTC 13302
  MIC: 2 µg/mL
[5]; agent alone, A. baumannii NCTC 13305
  MIC: 1 µg/mL
[6]; agent alone, A. baumannii J 144
  MIC: 1 µg/mL
[7]; agent alone, A. baumannii G 156
  MIC: 1 µg/mL
[8]; agent alone, A. baumannii M 126
  MIC: 1 µg/mL
[9]; agent alone, A. baumannii Q 1460648
  MIC: 1 µg/mL
[10]; agent alone, A. baumannii NCTC 13304
  MIC: 1 µg/mL
[11]; agent alone, A. baumannii NCTC 13303
  MIC: 1 µg/mL
